According to ChEMBL document CHEMBL5518159, “Thiazole-based analogues as potential antibacterial agents against methicillin-resistant Staphylococcus aureus (MRSA) and their SAR elucidation” (Eur J Med Chem, 2023):
Converted amounts (≈) assume the structure as drawn.

What was measured:
Staphylococcus aureus [1] = test: Antibacterial activity against vancomycin-resistant Staphylococcus aureus assessed as bacterial growth inhibition incubated for 18 to 24 hrs by CLSI-based microdilution method; assay type: functional; conditions: time 18-24 hrs
Staphylococcus aureus [2] = test: Antibacterial activity against methicillin-resistant Staphylococcus aureus assessed as inhibition of bacterial growth measured after 24 hrs by broth micro-dilution method; assay type: functional
Staphylococcus aureus [3] = test: Antibacterial activity against […] Staphylococcus aureus ATCC 29213 assessed as reduction in bacterial growth incubated for 16 to 20 hrs by CLSI based two-fold serial dilution method; assay type: functional; conditions: time 16-20 hrs
Staphylococcus aureus [4] = test: Antibacterial activity against Methicillin-resistant Staphylococcus aureus AUMC 261 assessed as bacterial growth inhibition incubated for 24 hrs by broth microdilution analysis; assay type: functional
Staphylococcus aureus [5] = test: Antibacterial activity against Staphylococcus aureus ATCC 43300 assessed as microbial inhibition incubated for 24 hrs by broth micro-dilution method; assay type: functional
DNA gyrase = DNA gyrase (Staphylococcus aureus, UniProt P0A0K8+P20831); test: Inhibition of Staphylococcus aureus DNA gyrase incubated for 30 mins by fluorescence based analysis; assay type: protein-complex assay
Staphylococcus aureus [6] = test: Antimicrobial activity against methicillin-resistant Staphylococcus aureus assessed as inhibition of microbial growth incubated for 16 hrs by microdilution method; assay type: functional, organism-based
Escherichia coli [7] = test: Antibacterial activity against Escherichia coli ATCC 25922 assessed as reduction in bacterial growth incubated for 18 to 24 hrs by broth microdilution method; assay type: functional; conditions: time 18-24 hrs
Staphylococcus aureus [8] = test: Antibacterial activity against Methicillin-resistant Staphylococcus aureus […] assessed as reduction in microbial growth incubated for 18 to 24 hrs by broth micro-dilution method; assay type: functional; conditions: time 18-24 hrs
Staphylococcus aureus [9] = test: Antimicrobial activity against […] Staphylococcus aureus ATCC 29213 assessed as reduction in bacterial viability incubated for 18 hrs by CLSI protocol based Muller Hinton broth based dilution assay; assay type: functional
Enterococcus faecium = test: Antimicrobial activity against Vancomycin-resistant Enterococcus faecium assessed as reduction in bacterial viability incubated for 18 hrs by CLSI protocol based Muller Hinton broth based dilution assay; assay type: functional
Staphylococcus aureus [10] = test: Antibacterial activity against […] Staphylococcus aureus ATCC 6538 assessed as bacterial growth inhibition incubated for 24 hrs by broth micro-dilution method; assay type: functional
Escherichia coli [11] = test: Antibacterial activity against Escherichia coli ATCC 35210 assessed as reduction in bacterial growth measured for 24 hrs by broth micro-dilution method; assay type: functional
Escherichia coli [12] = test: Antibacterial activity against Escherichia coli ATCC 25922 assessed as reduction in bacterial growth by broth microdilution method; assay type: functional
Staphylococcus aureus [13] = test: Antibacterial activity against methicillin-resistant Staphylococcus aureus ATCC 33592 assessed as reduction in bacterial growth; assay type: functional
Staphylococcus aureus [14] = test: Antibacterial activity against Methicillin-resistant Staphylococcus aureus […] assessed as reduction in microbial growth; assay type: functional
Escherichia coli [15] = test: Antibiofilm activity against Escherichia coli ATCC 25922 assessed as reduction in biofilm formation at 50 uM incubated for 24 hrs by crystal violet staining based analysis relative to control; assay type: functional; design: scale not given: the % may be the effect or the level left
Staphylococcus aureus [16] = test: Antimicrobial activity against Methicillin-resistant Staphylococcus aureus ATCC BAA41 assessed as bacterial growth inhibition measured after 18 hrs by CLSI based Muller Hinton broth microdilution method; assay type: functional
Staphylococcus aureus [17] = test: Antimicrobial activity against Methicillin-resistant Staphylococcus aureus ATCC 33591 assessed as bacterial growth inhibition measured after 18 hrs by CLSI based Muller Hinton broth microdilution method; assay type: functional
Staphylococcus aureus [18] = test: Antimicrobial activity against Methicillin-resistant Staphylococcus aureus ATCC 43300 assessed as bacterial growth inhibition measured after 18 hrs by CLSI based Muller Hinton broth microdilution method; assay type: functional
Staphylococcus aureus [19] = test: Antibacterial activity against Staphylococcus aureus ATCC 49444 assessed as reduction in microbial growth; assay type: functional
Staphylococcus aureus [20] = test: Antibacterial activity against Methicillin-sensitive Staphylococcus aureus ATCC 6538 assessed as reduction in microbial growth; assay type: functional
Pseudomonas aeruginosa = test: Antibacterial activity against Pseudomonas aeruginosa assessed as reduction in bacterial growth by broth microdilution method; assay type: functional
Escherichia coli [21] = test: Antibacterial activity against Escherichia coli ATCC 35210 assessed as reduction in bacterial growth by broth microdilution method; assay type: functional
Staphylococcus aureus [22] = test: Antibacterial activity against Methicillin-resistant Staphylococcus aureus assessed as reduction of microbial growth by Muller Hinton broth based dilution assay; assay type: functional
Escherichia coli [23] = test: Antibacterial activity against Escherichia coli ATCC 35210 assessed as reduction in microbial growth; assay type: functional
Staphylococcus aureus [24] = test: Antibacterial activity against Methicillin-resistant Staphylococcus aureus ATCC 43300 clinical isolate assessed as reduction in microbial growth incubated for 16 to 20 hrs by CLSI based two-fold serial dilution method; assay type: functional; conditions: time 16-20 hrs
Staphylococcus aureus [25] = test: Antibacterial activity against […] Staphylococcus aureus ATCC 6538 assessed as reduction in bacterial growth incubated for 24 hrs by broth micro-dilution method; assay type: functional
Staphylococcus aureus [26] = test: Antibacterial activity against clinical isolate Methicillin resistant Staphylococcus aureus 2658 RCMB assessed as reduction in microbial growth incubated for 16 to 24 hrs by CLSI-based Muller Hinton broth based microdilution method; assay type: functional; conditions: time 16-24 hrs
Staphylococcus aureus [27] = test: Antimicrobial activity against Methicillin-resistant Staphylococcus aureus ATCC 43300 assessed as bacterial growth inhibition incubated for 18 hrs by broth micro-dilution method; assay type: functional
Staphylococcus aureus [28] = test: Antibacterial activity against Methicillin-resistant Staphylococcus aureus ATCC 43300 assessed as reduction in bacterial growth measured for 24 hrs by CLSI based broth microdilution method; assay type: functional
Staphylococcus aureus [29] = test: Antibacterial activity against Methicillin-sensitive Staphylococcus aureus ATCC 43300 assessed as reduction in microbial growth by CLSI based broth microdilution method; assay type: functional

Chain of DNA gyrase (P0A0K8 whole entry): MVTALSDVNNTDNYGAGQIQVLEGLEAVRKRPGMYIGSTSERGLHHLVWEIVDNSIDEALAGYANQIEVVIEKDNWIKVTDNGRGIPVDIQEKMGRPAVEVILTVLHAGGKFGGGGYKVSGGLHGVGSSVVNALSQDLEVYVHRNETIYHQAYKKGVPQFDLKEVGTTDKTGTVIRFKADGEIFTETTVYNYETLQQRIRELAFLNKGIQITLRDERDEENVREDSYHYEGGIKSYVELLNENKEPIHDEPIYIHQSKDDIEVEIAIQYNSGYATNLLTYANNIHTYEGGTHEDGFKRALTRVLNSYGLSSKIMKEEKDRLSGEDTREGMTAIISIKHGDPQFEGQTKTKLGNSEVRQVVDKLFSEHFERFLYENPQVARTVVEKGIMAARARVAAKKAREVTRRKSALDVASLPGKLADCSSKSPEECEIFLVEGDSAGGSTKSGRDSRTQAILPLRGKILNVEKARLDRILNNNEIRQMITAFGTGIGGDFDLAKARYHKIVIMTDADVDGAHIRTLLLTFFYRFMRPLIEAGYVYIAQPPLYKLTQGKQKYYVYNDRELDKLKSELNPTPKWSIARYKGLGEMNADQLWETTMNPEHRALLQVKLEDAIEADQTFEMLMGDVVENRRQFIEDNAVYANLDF
Chain of DNA gyrase (P20831 whole entry): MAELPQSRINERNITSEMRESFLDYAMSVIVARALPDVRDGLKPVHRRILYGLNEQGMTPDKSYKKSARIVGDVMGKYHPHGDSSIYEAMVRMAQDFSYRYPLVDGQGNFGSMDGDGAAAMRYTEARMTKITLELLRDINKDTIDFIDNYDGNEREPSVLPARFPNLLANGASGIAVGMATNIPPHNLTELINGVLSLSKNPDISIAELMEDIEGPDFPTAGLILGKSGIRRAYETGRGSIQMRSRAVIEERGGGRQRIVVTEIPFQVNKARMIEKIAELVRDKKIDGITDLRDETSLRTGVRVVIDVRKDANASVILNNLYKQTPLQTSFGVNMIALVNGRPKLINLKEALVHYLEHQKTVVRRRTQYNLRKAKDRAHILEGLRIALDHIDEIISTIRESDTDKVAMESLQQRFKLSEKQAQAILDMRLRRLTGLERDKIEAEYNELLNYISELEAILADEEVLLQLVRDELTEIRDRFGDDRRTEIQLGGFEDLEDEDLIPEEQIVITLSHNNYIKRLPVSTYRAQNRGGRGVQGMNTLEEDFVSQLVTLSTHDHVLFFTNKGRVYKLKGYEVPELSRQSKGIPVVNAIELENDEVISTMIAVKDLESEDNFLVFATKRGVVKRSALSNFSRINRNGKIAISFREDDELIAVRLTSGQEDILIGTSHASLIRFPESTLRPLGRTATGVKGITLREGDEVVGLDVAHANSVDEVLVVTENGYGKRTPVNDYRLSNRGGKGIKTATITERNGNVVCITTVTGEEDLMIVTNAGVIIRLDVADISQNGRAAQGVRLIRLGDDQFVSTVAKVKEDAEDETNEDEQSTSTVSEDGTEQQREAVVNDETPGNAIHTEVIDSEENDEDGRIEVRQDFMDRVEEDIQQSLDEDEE

## O=C(O)CCN(c1ccc(Nc2ccccc2)cc1)c1nc(-c2ccc(F)cc2)cs1
Staphylococcus aureus [1]
  MIC: 1 µg/mL (≈ 2.31 µM)

## Cc1cnc(/C=c2\[nH]c(=O)/c(=C\c3cccc(F)c3)s2)s1
Staphylococcus aureus [2]
  MIC: 40 µg/mL (≈ 126 µM)

## CCCCCNc1ccc(S(=O)(=O)CC(=O)c2nccs2)cc1
Staphylococcus aureus [3]
  MIC: 1 µg/mL (≈ 2.84 µM)

## O=C(O)c1cn(C2CC2)c2cc(N3CCN(C(=O)CN4C(=O)S/C(=C\c5ccc(F)cc5)C4=O)CC3)c(F)cc2c1=O
Staphylococcus aureus [4]
  MIC: 2.88 µg/mL (≈ 4.84 µM)

## O=S(=O)(c1ccc2nc3s/c(=N/N=C\c4cccs4)n(-c4ccc(Cl)cc4)c3nc2c1)N1CCOCC1
Staphylococcus aureus [5]
  MIC: 1.25 µg/mL (≈ 2.19 µM)
DNA gyrase
  IC50: 10.4 µM

## CO/N=C(/COc1ccc2c(C)cc(=O)oc2c1)c1nccs1
Staphylococcus aureus [6]
  IC50: 1 µg/mL

## COc1ccc(N/N=C2/S/C(=N\N=C3/C(=O)Nc4ccc(Br)cc43)N=C2C)cc1
Escherichia coli [7]
  MIC: 1 µg/mL (≈ 2.12 µM)
Staphylococcus aureus [8]
  MIC: 1 µg/mL

## CCCN(CCC)CCCN1/C(=C/c2c3ccccc3[n+](C)c3c2oc2ccccc23)Sc2ccccc21.[I-]
Staphylococcus aureus [9]
  MIC: 0.25 µg/mL
Enterococcus faecium
  MIC: 0.25 µg/mL

## COc1ccc(/C=c2/s/c(=C/c3ncc(C)s3)[nH]c2=O)cc1
Staphylococcus aureus [2]
  MIC: 40 µg/mL (≈ 121 µM)

## CCOc1ccc2nc(N3C(=O)CSC3c3ccc(OC)cc3)sc2c1 (stereo unspecified)
Staphylococcus aureus [10]
  MIC: 90 µg/mL (≈ 233 µM)

## Cc1[nH]c2ccc(Cl)cc2c1-c1csc(N)n1
Escherichia coli [11]
  MIC: 60 µg/mL (≈ 227 µM)
Escherichia coli [12]
  MIC: 60 µg/mL (≈ 227 µM)
Staphylococcus aureus [13]
  MIC: 100 µg/mL (≈ 379 µM)
Staphylococcus aureus [14]
  MIC: 230 µg/mL

## CCOC1=NC(=N/N=C2\C(=O)Nc3ccc(Br)cc32)/S/C1=N/Nc1ccccc1
Escherichia coli [7]
  MIC: 4 µg/mL (≈ 8.49 µM)
Staphylococcus aureus [8]
  MIC: 8 µg/mL
Escherichia coli [15]
  Activity: 90%

## CN1/C(=C/c2cc(/C=C/c3cccnc3)[n+](C)c3ccccc23)Sc2ccccc21.[I-]
Staphylococcus aureus [16]
  MIC: 1.5 µg/mL
Staphylococcus aureus [17]
  MIC: 1.5 µg/mL
Staphylococcus aureus [18]
  MIC: 1.5 µg/mL

## O=c1c2ccccc2nc(C(c2nccs2)c2nccs2)n1-c1ccc(F)cc1
Staphylococcus aureus [19]
  MIC: 32 µg/mL

## COc1cc(CCN)c(-c2csc(-c3ccc(O)cc3)n2)cc1OC
Staphylococcus aureus [20]
  MIC: 700 µg/mL
Pseudomonas aeruginosa
  MIC: < 230 µg/mL
Escherichia coli [21]
  MIC: < 230 µg/mL

## O=C(/C(=C/c1ccc(-c2ccc(Cl)cc2Cl)cc1)Oc1ccc2c(CN(CCO)CCO)cc(=O)oc2c1)c1nccs1
Staphylococcus aureus [22]
  MIC: 4 µg/mL

## N#Cc1c(N2CCN(CC(=O)Nc3nccs3)CC2)nc(-c2ccco2)c2c1CCC2
Escherichia coli [23]
  MIC: 230 µg/mL

## Cc1cc(/C=C2\Sc3ccccc3N2CCCN2CCC(C)CC2)c2ccccc2[n+]1C.[I-]
Staphylococcus aureus [24]
  MIC: 2 µg/mL

## O=C1CSC(c2ccc([N+](=O)[O-])cc2)N1c1nc2ccc(Cl)cc2s1 (stereo unspecified)
Staphylococcus aureus [25]
  MIC: 100 µg/mL (≈ 255 µM)

## O=C1CSC(c2ccc([N+](=O)[O-])cc2)N1c1nc2c(Cl)cccc2s1 (stereo unspecified)
Staphylococcus aureus [10]
  MIC: 90 µg/mL (≈ 230 µM)

## O=C(/C(=C/c1ccc(-c2ccc([N+](=O)[O-])cc2)cc1)Oc1ccc2c(CN(CCO)CCO)cc(=O)oc2c1)c1nccs1
Staphylococcus aureus [22]
  MIC: 4 µg/mL

## Cc1nc(-c2ccc3ccccc3c2)sc1-c1nnc(NC(=N)N2CCN(C)CC2)o1
Staphylococcus aureus [26]
  MIC: 1.9 µg/mL

## O=C(O)c1cn(C2CC2)c2cc(N3CCN(C(=O)CN4C(=O)S/C(=C\c5ccc([N+](=O)[O-])cc5)C4=O)CC3)c(F)cc2c1=O
Staphylococcus aureus [4]
  MIC: 2.88 µg/mL (≈ 4.63 µM)

## CC(C)Cc1nc(N2CCN(CC(=O)Nc3nccs3)CC2)c(C#N)c2c1CCC2
Escherichia coli [23]
  MIC: 230 µg/mL

## O=C(O)c1cn(C2CC2)c2cc(N3CCNCC3)c(F)cc2c1=O [CIPROFLOXACIN]
Staphylococcus aureus [4]
  MIC: 0.2 µg/mL (≈ 0.604 µM)
Staphylococcus aureus [27]
  MIC: 32 µg/mL (≈ 96.6 µM)

## CN[C@H](CC(C)C)C(=O)N[C@H]1C(=O)N[C@@H](CC(N)=O)C(=O)N[C@H]2C(=O)N[C@H]3C(=O)N[C@H](C(=O)N[C@H](C(=O)O)c4cc(O)cc(O)c4-c4cc3ccc4O)[C@H](O)c3ccc(c(Cl)c3)Oc3cc2cc(c3O[C@@H]2O[C@H](CO)[C@@H](O)[C@H](O)[C@H]2O[C@H]2C[C@](C)(N)[C@H](O)[C@H](C)O2)Oc2ccc(cc2Cl)[C@H]1O [VANCOMYCIN]
Staphylococcus aureus [28]
  MIC50: 4 µg/mL (≈ 2.76 µM)
Staphylococcus aureus [29]
  MIC90: 16 µg/mL
Staphylococcus aureus [2]
  MIC: 1.95 µg/mL (≈ 1.35 µM)
